Results as given in PMC3917282, “Alkaloids from the Mangrove-Derived Actinomycete Jishengella endophytica 161111” (Marine Drugs, 2014).
In brackets after ≈: the same amount, converted by molar mass. Where two headings read alike, the source gives them in different places.

Assays:
[1] = test system: influenza virus (A/Puerto Rico/8/34 (H1N1), PR/8); assay: organism not typed; type: cell-based; settings: for IC50: read-out: IC50 against H1N1 (CPE inhibition); for selectivity index (SI): H1N1 IC50 and MDCK CC50
[2] = in vitro; settings: dog
[3] = MDCK cells infected with A/Puerto Rico/8/34 (H1N1), 48 h post-infection, crystal violet staining

For `OC[C@H](O)[C@@H](O)Cc1cncc(-c2ccco2)n1` [Compound 1, 2-(furan-2-yl)-6-(2S,3S,4-trihydroxybutyl)pyrazine], the IC50 [1, 3] was greater than 50 mg/L.
Work on `OC[C@H](O)[C@@H](O)Cc1cnc(-c2ccco2)cn1` [Compound 2, 2-(furan-2-yl)-5-(2S,3S,4-trihydroxybutyl)pyrazine] yielded an IC50 [1, 3] greater than 50 mg/L.
`CC(C)C[C@H]1C(=O)OCc2ccc(C=O)n21` [Compound 3, (S)-4-isobutyl-3-oxo-3,4-dihydro-1H-pyrrolo[2,1-c][1,4]oxazine-6-carbaldehyde] showed an IC50 [1, 3] greater than 50 mg/L.
With `CC(C)[C@H]1C(=O)OCc2ccc(C=O)n21` [Compound 4, (S)-4-isopropyl-3-oxo-3,4-dihydro-1H-pyrrolo[2,1-c][1,4]oxazine-6-carbaldehyde] the IC50 [1, 3] was greater than 50 mg/L.
For `O=Cc1ccc2n1[C@@H](Cc1ccccc1)C(=O)OC2` [Compound 6, (S)-4-benzyl-3-oxo-3,4-dihydro-1H-pyrrolo[2,1-c][1,4]oxazine-6-carbaldehyde], the IC50 [1, 3] was greater than 50 mg/L.
`O=C(O)c1cc2c([nH]c3ccccc32)c(-c2ccc(CO)o2)n1` [Compound 7, flazin] showed an IC50 [1, 3] greater than 50 mg/L.
In the case of `OCc1ccc(-c2nccc3c2[nH]c2ccccc23)o1` [Compound 8, perlolyrine], the CC50 at 36 h [2] is reported as 116 ± 12.1 mg/L (≈ 440 µM), the “selectivity index (SI)” value [1] is reported as 3.0 and the IC50 [1, 3] is reported as 38.3 mg/L (≈ 145 µM).
In the case of `Oc1nccc2c1[nH]c1ccccc12` [Compound 9, 1-hydroxy-β-carboline], the CC50 at 36 h [2] is reported as 403 ± 31.4 mg/L (≈ 2190 µM), the “selectivity index (SI)” value [1] is reported as 16.1 and the IC50 [1, 3] is reported as 25 mg/L (≈ 136 µM).
With `Cc1cc2nc3[nH]c(=O)[nH]c(=O)c3nc2cc1C` [Compound 10, lumichrome] the IC50 ([1]; MDCK, 48 h) was 39.7 mg/L (≈ 164 µM).
With `O=Cc1c[nH]c2ccccc12` [Compound 11, 1H-indole-3-carboxaldehyde] the CC50 at 36 h [2] was 522 ± 24.5 mg/L (≈ 3600 µM), the “selectivity index (SI)” value [1] was 11.4 and the IC50 [1, 3] was 45.9 mg/L (≈ 316 µM).
With `O=C(CO)c1c[nH]c2ccccc12` [Compound 12, 2-hydroxy-1-(1H-indol-3-yl)ethanone] the IC50 [1, 3] was greater than 50 mg/L.
`COCc1ccc(C=O)[nH]1` [Compound 13, 5-(methoxymethyl)-1H-pyrrole-2-carbaldehyde] gave an IC50 [1, 3] greater than 50 mg/L.
With `NC(=O)c1ncn([C@@H]2O[C@H](CO)[C@@H](O)[C@H]2O)n1` [Ribavirin, ribavirin, reference compound] the CC50 at 36 h [2] was 744 ± 18.5 mg/L (≈ 3050 µM), the “selectivity index (SI)” value [1] was 32.2 and the IC50 [1, 3] was 23.1 mg/L (≈ 94.6 µM).
For “(4S)-4-(2-methylbutyl)-3-oxo-3,4-dihydro-1H-pyrrolo[2,1-c][1,4]oxazine-6-carbaldehyde [Compound 5]”, the “IC50 against H1N1 (CPE inhibition)” value [1, 3] was greater than 50 mg/L.
